According to patent US9907601B2, “Methods and systems for chemical ablation” (Regents of the University of Minnesota, priority 2009, dated 2018):
Like-named read-outs stand apart in the source and are kept apart here.

Tests used:
[1] = In vitro injection of substrate and sodium permanganate solutions into a beaker, reaction temperature by thermocouple; type: physicochemical; conditions: for Average maximum temperature increase (° C.) Permanganate first / Average peak temperature (° C.) Permanganate first / Average maximum temperature increase (° C.) Simultaneous / Average peak temperature (° C.) Simultaneous / Average maximum temperature increase (° C.) Substrate first / Average peak temperature (° C.) Substrate first: substrate 1M/1 mL; for average maximum temperature: simultaneous injections, substrate 180 g/L, permanganate (1M, 1 mL)
Protocol: In vitro studies: All reagents were obtained from Sigma-Aldrich Chemical Co. (St. Louis, Mo.) unless otherwise noted. […] Exemplary reaction products of glycerol oxidation by permanganate include tartronic acid and glyceric acid (FIG. 8). Reaction temperature was measured by a thermocouple probe (type T MT-29/1; Physitemp Instruments, Clifton, N.J.) placed at the center of the beaker, with the tip submerged underneath the surface of the mixed solutions. Temperature recordings were made by a T-type thermocouple thermometer (Digi-Sense; Cole-Parmer, Vernon Hills, Ill.) at time intervals of 1 to 3 seconds from the onset of injections until the temperature dropped below 40° C. A series of different permanganate volumes (1, 2, and 3 mL) and concentrations (1 and 2M) were tested in order to study the effects of volume and concentration on temperature. Selected experiments were repeated with glucose, sucrose, maltodextrin (4-7 glucose unit average), and dextrin as substrates. The remaining substrates were different polysaccharides (starch, cellulose and glycogen) and polyvinyl alcohol. See, FIG. 9. All were used as 180 g/L (carbohydrates based on glucose) solutions and/or suspensions rather than expressing concentration in molarity due to their polymeric nature.

[2] = tested on: HepG2 cells; conditions: Castañeda and Kinne 2000; cited from earlier work
[3] = tested on: osteosarcoma cell line 143B; type: cell-based
[4] = tested on: breast cancer cell line MCF-7; experiment: MTT cell viability assay, MCF-7
Protocol: Cells were plated in 96-well plates for the MTT assays at a concentration of 3×10^5 cells per well overnight prior to performing the assays.
Cell viability assay: Cell viability assays were performed using as a substrate the MTT reagent 3-(4,5-Dimethylthiazol-2-yl)-2,5-diphenyltetrazolium bromide (Sigma-Aldrich, St. Louis, Mo.) at a concentration of 10 μg/100 μl. Growth medium was aspirated from the wells and cells were washed twice with 1×PBS. […] One hundred μl of MTT substrate was added to each well in a 96-well plate and plates were incubated for 1 hour at 37° C. Cells were then gently washed in 1×PBS and 100 μl stop solution (acidified phenol) was added to each well. Plates were incubated again at 37° C. for 30 minutes and the colorimetric changes in the cells were measured using a plate reader at 570 nm. Only the live viable cells are able to convert yellow colored MTT reagent into purple colored formazan.

[5] = tested on: HuH-7 cells
[6] = tested on: MCF-7 cells; experiment: DNA fragmentation assay, MCF-7; type: cell-based, human
Protocol: (§1) Cell lysates were incubated at 37° C. for 3 hours, and the samples were centrifuged at 13,000 rpm for 30 minutes. Supernatants containing DNA were extracted with phenol-chloroform and precipitated with ethanol. Equal amounts of DNA were resolved on a 2% agarose gel containing ethidium bromide, and bands corresponding to nucleosomes were visualized under ultra violet light.

[7] = tested on: 143B cells; experiment: DNA fragmentation assay, 143B; type: cell-based, human
Protocol: as §1

[8] = tested on: HuH-7 cells; experiment: DNA fragmentation assay, HuH-7; type: cell-based, human; conditions: 1 M urea for 2 hours
Protocol: as §1

[9] = NaMnO4 (1M/1 mL), permanganate first
[10] = NaMnO4 (1M/1 mL), simultaneous injection
[11] = NaMnO4 (1M/1 mL), substrate first
[12] = NaMnO4 (1M/2 mL), permanganate first
[13] = NaMnO4 (1M/2 mL), simultaneous injection
[14] = NaMnO4 (1M/2 mL), substrate first
[15] = NaMnO4 (1M/3 mL), permanganate first
[16] = NaMnO4 (1M/3 mL), simultaneous injection
[17] = NaMnO4 (1M/3 mL), substrate first
[18] = NaMnO4 (2M/1 mL), permanganate first
[19] = NaMnO4 (2M/1 mL), simultaneous injection
[20] = NaMnO4 (2M/1 mL), substrate first
[21] = 3% ethanol, exposure for 2 hours

Row | Compound | Average maximum temperature increase (° C.) Permanganate first [1, 9] | Average peak temperature (° C.) Permanganate first [1, 9] | Average maximum temperature increase (° C.) Simultaneous [1, 10] | Average peak temperature (° C.) Simultaneous [1, 10] | Average maximum temperature increase (° C.) Substrate first [1, 11] | Average peak temperature (° C.) Substrate first [1, 11] | Average maximum temperature increase (° C.) Permanganate first [1, 12] | Average peak temperature (° C.) Permanganate first [1, 12] | Average maximum temperature increase (° C.) Simultaneous [1, 13] | Average peak temperature (° C.) Simultaneous [1, 13] | Average maximum temperature increase (° C.) Substrate first [1, 14] | Average peak temperature (° C.) Substrate first [1, 14] | Average maximum temperature increase (° C.) Permanganate first [1, 15] | Average peak temperature (° C.) Permanganate first [1, 15] | Average maximum temperature increase (° C.) Simultaneous [1, 16] | Average peak temperature (° C.) Simultaneous [1, 16] | Average maximum temperature increase (° C.) Substrate first [1, 17] | Average peak temperature (° C.) Substrate first [1, 17] | Average maximum temperature increase (° C.) Permanganate first [1, 18] | Average peak temperature (° C.) Permanganate first [1, 18] | also measured
1 | OCC(O)CO [Glycerol, glycerol] | 37.6 °C | 59.3 °C | 41.4 °C | 63.9 °C | 48.4 °C | 71.1 °C | 48.5 °C | 70.3 °C | 66.3 °C | 89.1 °C | 64.4 °C | 86.7 °C | 55.3 °C | 77.9 °C | 66.6 °C | 90.6 °C | 67.5 °C | 90.3 °C | 75.4 °C | 97.0 °C | Average maximum temperature increase (° C.) Simultaneous [1, 19]: 74.5 °C; Average peak temperature (° C.) Simultaneous [1, 19]: 97.4 °C; Average maximum temperature increase (° C.) Substrate first [1, 20]: 76.9 °C; Average peak temperature (° C.) Substrate first [1, 20]: 99.1 °C; average maximum temperature, permanganate first ([1]; volume of substrate (1M) raised to 2 mL, permanganate 1M, permanganate first): 54.1 °C; average maximum temperature, simultaneous ([1]; volume of substrate (1M) raised to 2 mL, permanganate 1M, simultaneous injection): 53.1 °C; average maximum temperature, substrate first ([1]; volume of substrate (1M) raised to 2 mL, permanganate 1M, substrate first): 56.7 °C
2 | OC[C@H]1O[C@@](CO)(O[C@H]2O[C@H](CO)[C@@H](O)[C@H](O)[C@H]2O)[C@@H](O)[C@@H]1O [Sucrose, sucrose] | 24.9 °C | 46.4 °C | 33.5 °C | 56.8 °C | 37.1 °C | 58.9 °C | 42.1 °C | 64.9 °C | 51.0 °C | 73.6 °C | 60.0 °C | 82.1 °C | 51.5 °C | 74.6 °C | 66.9 °C | 90.1 °C | 63.0 °C | 85.1 °C | 76.7 °C | 100.0 °C | average maximum temperature, permanganate-first ([1]; concentration of the sucrose solution (1 mL) raised to 2M, permanganate-first): 100.0 °C; average maximum temperature, simultaneous ([1]; concentration of the sucrose solution (1 mL) raised to 2M, simultaneous injection): 100.2 °C; average maximum temperature, sucrose-first ([1]; concentration of the sucrose solution (1 mL) raised to 2M, sucrose-first): 99.8 °C; Average maximum temperature increase (° C.) Simultaneous [1, 19]: 77.0 °C; Average peak temperature (° C.) Simultaneous [1, 19]: 100.2 °C; Average maximum temperature increase (° C.) Substrate first [1, 20]: 77.7 °C; Average peak temperature (° C.) Substrate first [1, 20]: 99.8 °C; average temperature increase, permanganate-first ([1]; volume of sucrose solution increased to 2 mL, permanganate-first): 44.6 °C; average temperature increase, simultaneous ([1]; volume of sucrose solution increased to 2 mL, simultaneous injection): 45.9 °C; average temperature increase, sucrose-first ([1]; volume of sucrose solution increased to 2 mL, sucrose-first): 51.0 °C
3 | CCO [ethanol] | – | – | – | – | – | – | – | – | – | – | – | – | – | – | – | – | – | – | – | – | apoptosis [2]: induces apoptosis; cells died ([3]; 1% ethanol, 24 hour exposure): > 90%; cell death [3, 21]: > 90%; cells died ([4]; 1% ethanol, 24 hour exposure): > 90%; cell death [4, 21]: > 90%; cell death ([5]; 2% ethanol, 6 hours of exposure): 50%; cytotoxicity ([5]; 4% ethanol, 2 hours): lethal; cytotoxicity ([5]; ethanol 3% (v/v)): toxic; cytotoxicity ([5]; ethanol 5% (v/v)): toxic; apoptosis by DNA laddering ([6]; 10% ethanol for 6 hours): A similar result; apoptosis by DNA laddering ([7]; 10% ethanol for 6 hours): A similar result
4 | NC(N)=O [urea] | – | – | – | – | – | – | – | – | – | – | – | – | – | – | – | – | – | – | – | – | apoptosis by DNA laddering [8]: induced apoptosis; cells survived ([5]; 250 mM urea, 24 hours): 50%; cells survived ([5]; 750 mM urea, 6 hour exposure): about 50%; apoptosis by DNA laddering ([6]; 1 M urea for 2 hours): induced apoptosis; apoptosis by DNA laddering ([7]; 1 M urea for 2 hours): induced apoptosis
5 | dextrin | – | – | – | – | – | – | – | – | – | – | – | – | – | – | – | – | – | – | – | – | average maximum temperature [1]: 51.1 °C
6 | maltodextrin | – | – | – | – | – | – | – | – | – | – | – | – | – | – | – | – | – | – | – | – | average maximum temperature [1]: 42.5 °C
